Tested on: panel of nearly 500 cancer cell lines
Assay: Cancer Cell Line Encyclopedia profiling, 3-day CellTiter-Glo
Format: cell-based
Design: Amax: unit not given here

SMILES: CN(C)C(=O)c1cc2cnc(Nc3ccc(N4CCNCC4)cn3)nc2n1C1CCCC1 [Ribociclib, 7-cyclopentyl-2-(5-piperazin-1-yl-pyridin-2-ylamino)-7H-pyrrolo[2,3-d]pyrimidine-6-carboxylic acid dimethylamide]
- EC50 (Homo sapiens, TCC-SUP): > 8000 nM
- IC50 (Homo sapiens, TCC-SUP): > 8 µM
- EC50 (Homo sapiens, TE-11): 2090 nM
- IC50 (Homo sapiens, TE-11): > 8 µM
- EC50 (Homo sapiens, TE-15): 1230 nM
- IC50 (Homo sapiens, TE-15): > 8 µM
- EC50 (Homo sapiens, TOV21G): 1230 nM
- IC50 (Homo sapiens, TOV21G): > 8 µM
- EC50 (Homo sapiens, TOV112D): 995 nM
- IC50 (Homo sapiens, TOV112D): > 8 µM
- EC50 (Homo sapiens, Toledo): 1520 nM
- IC50 (Homo sapiens, Toledo): > 8 µM
- EC50 (Homo sapiens, U2OS): 2090 nM
- IC50 (Homo sapiens, U2OS): > 8 µM
- EC50 (Homo sapiens, U-87 MG): > 8000 nM
- IC50 (Homo sapiens, U-87 MG): > 8 µM
- EC50 (Homo sapiens, U-118-MG): 2680 nM
- IC50 (Homo sapiens, U-118-MG): > 8 µM
- EC50 (Homo sapiens, U-937): 1740 nM
- IC50 (Homo sapiens, U-937): 3.52 µM
- EC50 (Homo sapiens, UACC-62): 1620 nM
- IC50 (Homo sapiens, UACC-62): > 8 µM
- EC50 (Homo sapiens, UACC-257): 577 nM
- IC50 (Homo sapiens, UACC-257): > 8 µM
- EC50 (Homo sapiens, UACC-812): > 8000 nM
- IC50 (Homo sapiens, UACC-812): > 8 µM
- EC50 (Homo sapiens, UMUC3): > 8000 nM
- IC50 (Homo sapiens, UMUC3): > 8 µM
- EC50 (Homo sapiens, WM 266-4): 946 nM
- IC50 (Homo sapiens, WM 266-4): > 8 µM
- EC50 (Homo sapiens, WM793): > 8000 nM
- IC50 (Homo sapiens, WM793): > 8 µM
- EC50 (Homo sapiens, WM-115): > 8000 nM
- IC50 (Homo sapiens, WM-115): > 8 µM
- EC50 (Homo sapiens, YKG-1): > 8000 nM
- IC50 (Homo sapiens, YKG-1): > 8 µM
- EC50 (Homo sapiens, ZR-75-1): > 8000 nM
- IC50 (Homo sapiens, ZR-75-1): > 8 µM
- EC50 (Homo sapiens, ZR-75-30): > 8000 nM
- IC50 (Homo sapiens, ZR-75-30): > 8 µM
- EC50 (Hs766T): > 8000 nM
- IC50 (Hs766T): > 8 µM
- EC50 (IGR-39): > 8000 nM
- IC50 (IGR-39): > 8 µM
- EC50 (JHH7): 1830 nM
- IC50 (JHH7): > 8 µM
- EC50 (JHH-2): 7930 nM
- IC50 (JHH-2): > 8 µM
- EC50 (JHH-4): 2240 nM
- IC50 (JHH-4): > 8 µM
- EC50 (JMSU-1): > 8000 nM
- IC50 (JMSU-1): > 8 µM
- EC50 (KE-97): 3810 nM
- IC50 (KE-97): 4.53 µM
- EC50 (KHM-1B): 340 nM
- IC50 (KHM-1B): > 8 µM
- IC50 (KMM-1): 4.23 µM
- EC50 (KMRC-1): 907 nM
- IC50 (KMRC-1): > 8 µM
- EC50 (KMS-26): 3370 nM
- IC50 (KMS-26): 2.53 µM
- EC50 (Karpas-620): 77.3 nM
- IC50 (Karpas-620): > 8 µM
- EC50 (Kelly): 6640 nM
- IC50 (Kelly): 6.64 µM
- EC50 (LOU-NH91): > 8000 nM
- IC50 (LOU-NH91): > 8 µM
- EC50 (LUDLU-1): 15.4 nM
- IC50 (LUDLU-1): > 8 µM
- EC50 (Mono-Mac-1): 704 nM
- IC50 (Mono-Mac-1): 3.22 µM
- EC50 (NCI-H322): > 8000 nM
- IC50 (NCI-H322): > 8 µM
- EC50 (NCI-H1339): > 8000 nM
- IC50 (NCI-H1339): > 8 µM
- EC50 (NCI-H1568): > 8000 nM
- IC50 (NCI-H1568): > 8 µM
- EC50 (NCI-H1915): > 8000 nM
- IC50 (NCI-H1915): > 8 µM
- EC50 (NCI-H2023): 69.8 nM
- IC50 (NCI-H2023): > 8 µM
- EC50 (NCI-H2172): > 8000 nM
- IC50 (NCI-H2172): > 8 µM
- EC50 (OCUM1): > 8000 nM
- IC50 (OCUM1): > 8 µM
- EC50 (OE21): > 8000 nM
- IC50 (OE21): 4.52 µM
- EC50 (ONCO-DG-1): > 8000 nM
- IC50 (ONCO-DG-1): > 8 µM
- EC50 (PK-59): > 8000 nM
- IC50 (PK-59): > 8 µM
- EC50 (PL45): 97.5 nM
- IC50 (PL45): > 8 µM
- EC50 (PaTu 8902): > 8000 nM
- IC50 (PaTu 8902): > 8 µM
- EC50 (QGP-1): 309 nM
- IC50 (QGP-1): 2.33 µM
- EC50 (SH-10-TC): > 8000 nM
- IC50 (SH-10-TC): > 8 µM
- EC50 (SUIT-2): 1620 nM
- IC50 (SUIT-2): 7.97 µM
- EC50 (SW579): 929 nM
- IC50 (SW579): > 8 µM
- EC50 (SW1271): 2540 nM
- IC50 (SW1271): > 8 µM
- EC50 (TC-71): > 8000 nM
- IC50 (TC-71): > 8 µM
- EC50 (WM983B): 114 nM
- IC50 (WM983B): 0.327 µM
- EC50 (WM-1799): 202 nM
- IC50 (WM-1799): > 8 µM
- Amax (a172 (central_nervous_system)): -18.6367
- Amax (a204 (soft_tissue)): -24.3309
- Amax (a253 (salivary_gland)): 9.763
- Amax (a2058 (skin)): 0.435
- Amax (g402 (soft_tissue)): -59.1579
- Amax (gamg (central_nervous_system)): -4.349
- Amax (gb1 (central_nervous_system)): -5.547
- Amax (gciy (stomach)): -6.8217
- Amax (gct (soft_tissue)): -35.032
- Amax (gi1 (central_nervous_system)): 1.537
- Amax (glc82 (lung)): 6.841
- Amax (gms10 (central_nervous_system)): 6.4331
- Amax (granta519 (haematopoietic_and_lymphoid_tissue)): -7.882
- Amax (h4 (central_nervous_system)): -7.315
- Amax (hara (lung)): -39.5316
- Amax (hcc15 (lung)): 11.5352
- Amax (hcc44 (lung)): -21.2383
- Amax (hcc56 (large_intestine)): -7.243
- Amax (hcc70 (breast)): 9.331
- Amax (hcc78 (lung)): 8.5798
- Amax (hcc827 (lung)): 5.053
- Amax (hcc1187 (breast)): -1.8256
- Amax (hcc1395 (breast)): 4.555
- Amax (hcc1569 (breast)): -4.171
- Amax (hcc1806 (breast)): -2.407
- Amax (hcc1954 (breast)): 5.4786
- Amax (hcc2935 (lung)): 3.035
- Amax (hcc4006 (lung)): -45.676
- Amax (hct15 (large_intestine)): -18.4329
- Amax (hct116 (large_intestine)): -41.8056
- Amax (hdmyz (haematopoietic_and_lymphoid_tissue)): -70.2074
- Amax (hdqp1 (breast)): -11.6831
- Amax (hec1a (endometrium)): -0.2935
- Amax (hec1b (endometrium)): -44.265
- Amax (hec6 (endometrium)): 9.745
- Amax (hec59 (endometrium)): -17.0499
- Amax (hec151 (endometrium)): 0.04545
- Amax (hec251 (endometrium)): 3.202
- Amax (hec265 (endometrium)): 6.223
- Amax (hel9217 (haematopoietic_and_lymphoid_tissue)): 0.4869
- Amax (hep3b217 (liver)): 2.738
- Amax (hepg2 (liver)): -37.2895
- Amax (heya8 (ovary)): -44.7632
- Amax (hgc27 (stomach)): -65.8757
- Amax (hh (haematopoietic_and_lymphoid_tissue)): -3.613
- Amax (hle (liver)): -18.5726
- Amax (hlf (liver)): 6.292
- Amax (hmc18 (breast)): -31.7315
- Amax (hmcb (skin)): -41.1129
- Amax (hos (bone)): -0.8851
- Amax (hpac (pancreas)): -55.1912
- Amax (hpafii (pancreas)): -3.9084
- Amax (hs229t (lung)): -28.1577
- Amax (hs294t (skin)): -32.1941
- Amax (hs578t (breast)): -21.2687
- Amax (hs695t (skin)): -3.506
- Amax (hs729 (soft_tissue)): 10.8537
- Amax (hs739t (breast)): -26.62
- Amax (hs746t (stomach)): -37.6649
- Amax (hs766t (pancreas)): -32.0513
- Amax (hs840t (upper_aerodigestive_tract)): -29.2379
- Amax (hs852t (skin)): -6.059
- Amax (hs936t (skin)): -38.0651
- Amax (hs939t (skin)): -14.4612
- Amax (hsc2 (upper_aerodigestive_tract)): 0.4805
- Amax (ht29 (large_intestine)): -56.1634
- Amax (ht144 (skin)): -18.5925
- Amax (ht1080 (soft_tissue)): -36.8044
- Amax (ht1197 (urinary_tract)): -10.59
- Amax (ht1376 (urinary_tract)): 7.547
- Amax (ht (haematopoietic_and_lymphoid_tissue)): 8.223
- Amax (hucct1 (biliary_tract)): 1.7282
- Amax (huh1 (liver)): -43.6531
- Amax (hupt3 (pancreas)): -32.6303
- Amax (hupt4 (pancreas)): -52.4819
- Amax (hut78 (haematopoietic_and_lymphoid_tissue)): 8.299
- Amax (ialm (lung)): 0.7254
- Amax (igr37 (skin)): -22.1572
- Amax (igr39 (skin)): 0.9211
- Amax (igrov1 (ovary)): -1.9772
- Amax (im95 (stomach)): -0.7889
- Amax (imr32 (autonomic_ganglia)): -55.0108
- Amax (ipc298 (skin)): -16.0715
- Amax (ishikawaheraklio02er (endometrium)): 0.9691
- Amax (istmes1 (pleura)): -35.2757
- Amax (istmes2 (pleura)): -42.1214
- Amax (j82 (urinary_tract)): -0.8954
- Amax (jhh2 (liver)): -16.2272
- Amax (jhh4 (liver)): -26.3135
- Amax (jhh5 (liver)): -74.5916
- Amax (jhh6 (liver)): 4.949
- Amax (jhh7 (liver)): -42.8596
- Amax (jhos2 (ovary)): 12.8505
- Amax (jhos4 (ovary)): 4.354
- Amax (jhuem2 (endometrium)): -27.6126

— article PMC6219668 (Oncotarget, 2018)
